Data taken from ChEMBL document CHEMBL4613217, “Synthesis, anti-plasmodial and cytotoxic evaluation of 1H-1,2,3-triazole/acyl hydrazide integrated tetrahydro-β-carboline-4-aminoquinoline conjugates” (Bioorg Med Chem Lett, 2020).

How the values were obtained:
Plasmodium falciparum = experiment: Antiplasmodial activity against chloroquine-resistant Plasmodium falciparum W2; type: functional, organism-based
Vero = experiment: Cytotoxicity against African green monkey Vero cells assessed as reduction in cell viability; type: cell-based; settings: Chlorocebus sabaeus
[1] = Selectivity Index, ratio of IC50 for African green monkey Vero cells to IC50 for chloroquine-resistant Plasmodium falciparum W2; type: toxicity; settings: read-out: Ratio IC50

Compound | IC50 (Plasmodium falciparum) [µM] | IC50 (Vero) [µM] | selectivity ratio [1]
O=C(CNc1ccnc2cc(Cl)ccc12)NNC(=O)C1Cc2c([nH]c3ccccc23)CN1 (configuration not stated) | 4.4 | – | –
CCOC(=O)C1Cc2c([nH]c3ccccc23)[C@@H](C)N1Cc1cn(-c2ccnc3cc(Cl)ccc23)nn1 (some centres not stated) | 4.02 | – | –
O=C(O)c1ccc(Nc2ccnc3cc(Cl)ccc23)cc1 | 8.6 | – | –
C[C@@H]1NC(C(=O)NNC(=O)CCCCCNc2ccnc3cc(Cl)ccc23)Cc2c1[nH]c1ccccc21 (some centres not stated) | 1.8 | – | –
O=C(CCCCCNc1ccnc2cc(Cl)ccc12)NNC(=O)C1Cc2c([nH]c3ccccc23)CN1 (configuration not stated) | 2.2 | – | –
C[C@@H]1NC(C(=O)NNC(=O)CCCNc2ccnc3cc(Cl)ccc23)Cc2c1[nH]c1ccccc21 (some centres not stated) | 3.4 | – | –
CCOC(=O)C1Cc2c([nH]c3ccccc23)[C@@H](C)N1Cc1cn(CCNc2ccnc3cc(Cl)ccc23)nn1 (some centres not stated) | 0.93 | – | –
CCOC(=O)C1Cc2c([nH]c3ccccc23)CN1Cc1cn(CCCNc2ccnc3cc(Cl)ccc23)nn1 (configuration not stated) | 0.49 | 246 | 496
CCOC(=O)C1Cc2c([nH]c3ccccc23)[C@@H](C)N1Cc1cn(CCCNc2ccnc3cc(Cl)ccc23)nn1 (some centres not stated) | 1.37 | – | –
CCOC(=O)C1Cc2c([nH]c3ccccc23)CN1Cc1cn(-c2ccnc3cc(Cl)ccc23)nn1 (configuration not stated) | 9.28 | – | –
CCOC(=O)C1Cc2c([nH]c3ccccc23)CN1Cc1cn(CCNc2ccnc3cc(Cl)ccc23)nn1 (configuration not stated) | 0.86 | 268 | 312
C[C@@H]1NC(C(=O)NNC(=O)CCNc2ccnc3cc(Cl)ccc23)Cc2c1[nH]c1ccccc21 (some centres not stated) | 2 | – | –
C[C@@H]1NC(C(=O)NNC(=O)CNc2ccnc3cc(Cl)ccc23)Cc2c1[nH]c1ccccc21 (some centres not stated) | 5 | – | –
C#CCN1C(C(=O)OCC)Cc2c([nH]c3ccccc23)[C@H]1C (some centres not stated) | 9 | – | –
C[C@H]1NC(C(=O)NNC(=O)c2ccc(Nc3ccnc4cc(Cl)ccc34)cc2)Cc2c1[nH]c1ccccc21 (some centres not stated) | 1.21 | 103 | 84.9
O=C(CCCNc1ccnc2cc(Cl)ccc12)NNC(=O)C1Cc2c([nH]c3ccccc23)CN1 (configuration not stated) | 3.1 | – | –
O=C(CCNc1ccnc2cc(Cl)ccc12)NNC(=O)C1Cc2c([nH]c3ccccc23)CN1 (configuration not stated) | 3.1 | – | –
C#CCN1Cc2[nH]c3ccccc3c2CC1C(=O)OCC (configuration not stated) | 4.3 | – | –
O=C(NNC(=O)C1Cc2c([nH]c3ccccc23)CN1)c1ccc(Nc2ccnc3cc(Cl)ccc23)cc1 (configuration not stated) | 0.61 | 95.1 | 156
